Converted amounts (≈) assume the structure as drawn. Read-outs that look alike come from different tables or passages of the source.
How the values were obtained:
[1] = Cytotoxicity by neutral red dye uptake, A549 cells; conditions: human
[2] = tested on: Influenza A (H1N1) Texas/36/91; test: microbe, parasite or virus in culture; format: cell-based, influenza A virus; conditions: Influenza A virus, MDCK; Influenza A (H1N1) Texas/36/91; read-out: CPE Inhibition EC50
[3] = tested on: Parainfluenza Type 3 Virus; test: organism not typed; format: cell-based; conditions: MA104; Parainfluenza Type 3 Virus; read-out: CPI Inhibition EC50
[4] = in vitro; conditions: African green monkey
[5] = in vitro; conditions: human
[6] = tested on: Hepatitis B Virus (HBV); test: Inhibition of HBV replication in 2.2.15 cells, extracellular (virion) HBV DNA; conditions: for anti-HBV activity (in words): 2.2.15 cells; for EC50 / EC90: Hepatitis B virus, 216 h; for EC50: read-out: EC50 (50% effective dose), HBV Virion, 2.2.15 cells, extracellular (virion) HBV DNA, 9 days treatment; for EC90: read-out: EC90 (90% effective dose), HBV Virion, 2.2.15 cells, extracellular (virion) HBV DNA, 9 days treatment;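 as to all read-outs here: extracellular virion HBV DNA in culture medium measured by slot blot hybridization with a 32P-labeled HBV probe, quantified against HBV DNA standards, after 9 days of daily dosing, compared with day 0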
[7] = tested on: Parainfluenza Type 3 Virus; test: organism not typed; format: cell-based; conditions: MA104, read-out: Neutral Red EC50
[8] = tested on: HFF Cells; test: Cytotoxicity (CC50) in HFF cells in the herpes virus tests; conditions: HFF Cells, HSV-2 test
[9] = as above; conditions: human
[10] = tested on: Influenza A (H3N2) Beijing/32/92; test: microbe, parasite or virus in culture; format: cell-based, influenza A virus; conditions: Influenza A virus, MDCK; Influenza A (H3N2) Beijing/32/92; read-out: Neutral Red EC50
[11] = tested on: Respiratory Syncytial Virus; test: microbe, parasite or virus in culture; format: cell-based; conditions: human respiratory syncytial virus, MA104; read-out: Neutral Red EC50
[12] = Cytotoxicity by neutral red dye uptake, MA-104 cells; conditions: African green monkey, Neutral Red IC50 (cytotoxic)
[13] = tested on: Adenovirus Type 5; test: microbe, parasite or virus in culture; format: cell-based; conditions: Human mastadenovirus C, A549, read-out: CPE Inhibition EC50
[14] = tested on: Respiratory Syncytial Virus; test: microbe, parasite or virus in culture; format: cell-based; conditions: human respiratory syncytial virus, MA104; read-out: CPE Inhibition EC50
[15] = biological target: T1, HIV-1 RT (Human immunodeficiency virus type 1 group M subtype B, UniProt P03366); test: Anti-HIV-1 RT assay (recombinant enzyme); format: biochemical; conditions: for inhibition at 200 µg/mL: read-out: Anti-HIV-1 RT % Inhibition at 200 μg/ml; for Anti-HIV-1 RT IC50: values in parentheses or in words
T1 construct: made in house; host or cells: Escherichia coli

[16] = Cytotoxicity by neutral red dye uptake, BSC-1 cells; conditions: African green monkey
[17] = tested on: Influenza A (H3N2) Beijing/32/92; test: microbe, parasite or virus in culture; format: cell-based, influenza A virus; conditions: Influenza A virus, MDCK; Influenza A (H3N2) Beijing/32/92; read-out: CPE Inhibition EC50
[18] = in vitro; conditions: dog
[19] = tested on: HCMV; test: HCMV CPE inhibition in HFF cells; conditions: for HCMV SI (CC50/EC50): HFF Cells; for EC50: Human betaherpesvirus 5, HFF, read-out: HCMV CPE Inhibition EC50
[20] = tested on: Measles Virus; test: microbe, parasite or virus in culture; format: cell-based; conditions: for EC50: Measles morbillivirus, BSC-1, Measles Virus, read-out: CPI Inhibition EC50
[21] = tested on: Measles Virus; test: Measles virus neutral red dye uptake in BSC-1 cells; format: cell-based; conditions: Measles morbillivirus, BSC-1
[22] = in vitro; conditions: dog, Neutral Red IC50 (cytotoxic)
[23] = tested on: HSV-2; test: HSV-2 CPE inhibition in HFF cells; conditions: for HSV-2 SI (CC50/EC50): HFF Cells; for EC50: Human alphaherpesvirus 2, HFF, read-out: HSV-2 CPE Inhibition EC50
[24] = tested on: Influenza B Panama/45/90; test: microbe, parasite or virus in culture; format: cell-based; conditions: Influenza B virus, MDCK; Influenza B Panama/45/90; read-out: CPE Inhibition EC50
[25] = tested on: HSV-1; test: HSV-1 CPE inhibition in HFF cells; conditions: for HSV-1 SI (CC50/EC50): HFF Cells; for EC50: Human alphaherpesvirus 1, HFF, read-out: HSV-1 CPE Inhibition EC50
[26] = in vitro; conditions: African green monkey; remark: listed apart in the source
[27] = tested on: VZV; test: VZV plaque reduction assay in HFF cells; conditions: for VZV SI (CC50/EC50): HFF Cells; for EC50: Human alphaherpesvirus 3, HFF, read-out: VZV Plaque Reduction EC50
[28] = tested on: Influenza A (H1N1) Texas/36/91; test: microbe, parasite or virus in culture; format: cell-based, influenza A virus; conditions: Influenza A virus, MDCK; Influenza A (H1N1) Texas/36/91; read-out: Neutral Red EC50
[29] = tested on: Adenovirus Type 5; test: Adenovirus type 5 neutral red dye uptake in A549 cells; format: cell-based; conditions: Human mastadenovirus C, A549; Adenovirus Type 5; read-out: Neutral Red EC50
[30] = tested on: Influenza B Panama/45/90; test: microbe, parasite or virus in culture; format: cell-based; conditions: Influenza B virus, MDCK, read-out: Neutral Red EC50
[31] = Parainfluenza Type 3 Virus test
[32] = Respiratory Syncytial Virus test
[33] = CPE Inhibition IC50 (50% cell inhibitory (cytotoxic) concentration), Influenza A (H1N1) test
[34] = CPE Inhibition IC50 (cytotoxic), Influenza A (H3N2) test
[35] = CPE Inhibition IC50 (cytotoxic), Influenza B test
[36] = CPE Inhibition IC50 (cytotoxic), Respiratory Syncytial Virus test
[37] = CPI Inhibition IC50 (cytotoxic), Parainfluenza Type 3 Virus test

O=C1CC(c2ccc(O)cc2)Oc2cc(O)c(-c3c(O)cc(O)c4c3OC(c3ccc(O)cc3)CC4=O)c(O)c21 (stereo not shown) [Rhusflavanone (9), rhusflavanone]
IC50 [1]: 15 µg/mL (≈ 27.6 µM) | EC50 [2]: > 10 µg/mL | EC50 [3]: > 100 µg/mL | IC50 [4]: 21 µg/mL (≈ 38.7 µM) | IC50 [5]: 47 µg/mL (≈ 86.6 µM) | anti-HBV activity (in words) ([6]; listed as rhusflavanone): inactive | anti-HBV activity (in words) ([6]; listed as rhusflavanone (9)): little or no anti-HBV activity | EC50 [6]: > 100 µM | EC90 [6]: > 100 µM | EC50 [7]: 85 µg/mL (≈ 157 µM) | HSV-2 CPE Inhibition CC50 [8]: >100 µg/mL | CC50 at 3 days [9]: > 100 µg/mL | CC50 at 10 days [9]: 16 µg/mL (≈ 29.5 µM) | CC50 at 14 days [9]: 13.7 µg/mL (≈ 25.3 µM) | EC50 [10]: 31 µg/mL (≈ 57.1 µM) | EC50 [11]: 27 µg/mL (≈ 49.8 µM) | IC50 [12, 31]: 30 µg/mL (≈ 55.3 µM) | IC50 [12, 32]: 20 µg/mL (≈ 36.9 µM) | EC50 [13]: 56 µg/mL (≈ 103 µM) | EC50 [14]: > 10 µg/mL | activity against HIV-1 RT (in words) [15]: completely inactive | inhibition at 200 µg/mL [15]: 14.1% | Anti-HIV-1 RT IC50 [15]: Inactive | IC50 [16]: 40 µg/mL (≈ 73.7 µM) | EC50 [17]: > 32 µg/mL | IC50 [18, 33]: 8.2 µg/mL (≈ 15.1 µM) | IC50 [18, 34]: 24 µg/mL (≈ 44.2 µM) | IC50 [18, 35]: 38 µg/mL (≈ 70 µM) | HCMV SI (CC50/EC50) [19]: <3.4 | EC50 [19]: > 4 µg/mL | activity against measles virus (in words) [20]: some slight activity | EC50 [20]: 14 µg/mL (≈ 25.8 µM) | EC50 [21]: 5 µg/mL (≈ 9.22 µM) | IC50 ([22]; Influenza A (H1N1) test): 26 µg/mL (≈ 47.9 µM) | IC50 ([22]; Influenza A (H3N2) test): 31 µg/mL (≈ 57.1 µM) | activity against HSV-2 (in words) [23]: active | HSV-2 SI (CC50/EC50) [23]: >6.4 | EC50 [23]: 15.7 µg/mL (≈ 28.9 µM) | EC50 [24]: 4.1 µg/mL (≈ 7.56 µM) | HSV-1 SI (CC50/EC50) [25]: 0 | EC50 [25]: > 100 µg/mL | IC50 [26, 36]: 18 µg/mL (≈ 33.2 µM) | IC50 [26, 37]: 47 µg/mL (≈ 86.6 µM) | VZV SI (CC50/EC50) [27]: <4 | EC50 [27]: > 4 µg/mL | EC50 [28]: 24 µg/mL (≈ 44.2 µM) | EC50 [29]: 33 µg/mL (≈ 60.8 µM)

O=C1CC(c2ccc(O)cc2)Oc2cc(O)c(-c3c(O)cc4c(c3O)C(=O)CC(c3ccc(O)cc3)O4)c(O)c21 (stereo not shown) [Succedaneaflavanone (11), succedaneaflavanone]
IC50 [1]: 27 µg/mL (≈ 49.8 µM) | EC50 [2]: > 3.2 µg/mL | EC50 [3]: > 10 µg/mL | IC50 [4]: < 23 µg/mL | IC50 [5]: 22 µg/mL (≈ 40.6 µM) | anti-HBV activity (in words) [6]: inactive | anti-HBV activity (in words) ([6]; listed as succendaneaflavanone): little or no anti-HBV activity | EC50 [6]: > 100 µM | EC90 [6]: > 100 µM | EC50 [7]: 23 µg/mL (≈ 42.4 µM) | CC50 at 3 days [9]: 60.7 µg/mL (≈ 112 µM) | CC50 at 10 days [9]: 60 µg/mL (≈ 111 µM) | CC50 at 14 days [9]: 55.5 µg/mL (≈ 102 µM) | EC50 [10]: 12 µg/mL (≈ 22.1 µM) | EC50 [11]: ~16 µg/mL (≈ 29.5 µM) | IC50 [12, 31]: ~29 µg/mL (≈ 53.5 µM) | IC50 [12, 32]: ~10 µg/mL (≈ 18.4 µM) | EC50 [13]: 10 µg/mL (≈ 18.4 µM) | EC50 [14]: > 10 µg/mL | activity against HIV-1 RT (in words) [15]: completely inactive | inhibition at 200 µg/mL [15]: 22.1% | Anti-HIV-1 RT IC50 [15]: Inactive | IC50 [16]: < 20 µg/mL | EC50 [17]: > 10 µg/mL | IC50 [18, 33]: 4.9 µg/mL (≈ 9.03 µM) | IC50 [18, 34]: 12 µg/mL (≈ 22.1 µM) | IC50 [18, 35]: 15 µg/mL (≈ 27.6 µM) | HCMV SI (CC50/EC50) [19]: <2.7 | EC50 [19]: > 20 µg/mL | EC50 [20]: ~32 µg/mL (≈ 59 µM) | EC50 [21]: < 12 µg/mL | IC50 ([22]; Influenza A (H1N1) test): 5 µg/mL (≈ 9.22 µM) | IC50 ([22]; Influenza A (H3N2) test): 12 µg/mL (≈ 22.1 µM) | IC50 ([22]; Influenza B test): 7 µg/mL (≈ 12.9 µM) | HSV-2 SI (CC50/EC50) [23]: <3.0 | EC50 [23]: > 20 µg/mL | EC50 [24]: 0.97 µg/mL (≈ 1.79 µM) | HSV-1 SI (CC50/EC50) [25]: <3.0 | EC50 [25]: > 20 µg/mL | IC50 [26, 36]: ~13 µg/mL (≈ 24 µM) | IC50 [26, 37]: ~22 µg/mL (≈ 40.6 µM) | EC50 [30]: 2.2 µg/mL (≈ 4.06 µM) | VZV SI (CC50/EC50) [27]: < 3 | VZV SI (CC50/EC50) ([27]; listed as Succedaneaflavone (11)): <3.0 | EC50 [27]: > 20 µg/mL | EC50 [28]: 5.2 µg/mL (≈ 9.59 µM) | EC50 [29]: 19 µg/mL (≈ 35 µM)
